For orientation: Kd means the free concentration of one partner at which half of the binding sites on the other are occupied at equilibrium, for simple one-to-one binding. Read a low Kd as higher affinity.

SMILES strings stand for the structures.

The results in this text go back to article PMC5699498 (Protein Science : A Publication of the Protein Society, 2017).

The target of this test is Lpg2936 (Legionella pneumophila, UniProt Q5ZRE6). As to the kind of experiment: biochemical.
Chain of Lpg2936 (Q5ZRE6 1-244 limits assumed): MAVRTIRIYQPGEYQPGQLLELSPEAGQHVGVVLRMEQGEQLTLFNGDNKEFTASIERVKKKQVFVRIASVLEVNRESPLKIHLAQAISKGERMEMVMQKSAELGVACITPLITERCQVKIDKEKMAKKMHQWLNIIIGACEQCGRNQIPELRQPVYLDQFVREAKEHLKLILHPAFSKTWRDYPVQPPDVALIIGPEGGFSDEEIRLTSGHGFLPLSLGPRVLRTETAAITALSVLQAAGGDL

`C[S+](CC[C@H](N)C(=O)O)C[C@H]1O[C@@H](n2cnc3c(N)ncnc32)[C@H](O)[C@@H]1O` (stereo partly shown) [S‐adenosyl‐L‐methionine] showed a Kd of 12 nM.
